Reference: publication PMC10726441, “Discovery of Tumor-Targeted 6-Methyl Substituted Pemetrexed and Related Antifolates with Selective Loss of RFC Transport” (ACS Medicinal Chemistry Letters, 2023)
Entries after “also recorded” stand apart in the source; their conditions may differ.

Columns and labels:
PC43-10 (RFC) CHO cells = test: Cell proliferation assay, PC43-10 CHO cells expressing human RFC; type: cell-based, Chinese hamster; conditions: Cricetulus griseus, 96 h, 0-1000 nM, mean (standard error), 3-5 experiments
Text: (§1) To assess the impact of 6-methyl substitutions on the bicyclic scaffolds of the pyrrolo[2,3-d]pyrimidine antifolates 1–4 on RFC transport vis-à-vis PCFT, FRα, and FRβ, we used a unique biological readout for transport activity. This involved proliferation assays with isogenic Chinese hamster ovary (CHO) sublines derived from RFC-, FR-, and PCFT-null MTXRIIOua^R2–4 CHO cells[39],[40] engineered to express the human FRα (RT16),[25] FRβ (D4),[25] RFC (PC43–10),[41] or PCFT (R2/PCFT4).[26],[42] As these CHO cell lines are genetically identical except for their folate transporters, differences in inhibition of cell proliferation by specific cytotoxic antifolates directly reflect transporter specificities.[19],[23]−[31],[42] […]
(§2) Reagents for biological studies. Leucovorin [(6R,S) 5-formyl tetrahydrofolate] and methotrexate (MTX) was provided by the Drug Development Branch, National Cancer Institute, Bethesda, MD. Other chemicals were obtained from commercial sources in the highest available purities. Pemetrexed (PMX; 1) [N-{4-[2- (2-amino-3,4-dihydro-4-oxo-7H-pyrrolo[2,3-d]pyrimidin-5-yl)ethyl]benzoyl-L-glutamic acid] (Alimta) was purchased from LC Laboratories (Woburn, MA). The syntheses of compounds 2 and 3 were previously described.7, 8 Additional chemicals were purchased from commercial sources in the highest available purities.
(§3) Cell Culture. The reduced folate carrier (RFC), proton-coupled folate transporter (SLC46A1; PCFT) and folate receptor (FR) α- and β-null Chinese hamster ovary (CHO) cell line MTXRIIOuaR2-49 was a gift from Dr. Wayne Flintoff (University of Western Ontario, London, ON). Four sublines were derived from the R2 subline by transfection with either RFC, PCFT, FRα, or FRβ, giving rise to PC43-10 (expresses human RFC), 10 R2/PCFT4 (expresses human PCFT),11 RT16 (expresses human FRα), 12 and D4 (expresses FRβ) cells. 12 Isogenic CHO sublines were routinely cultured in α-minimal essential medium (α-MEM) supplemented with 100 units/mL penicillin/100 μg/mL streptomycin, 2 mM L-glutamine and 10% bovine calf serum (Sigma-Aldrich). Transfected sublines of R2 cells were cultured in the presence of 1.5 mg/ml G418. […]
(§4) mM L-glutamine. Cell lines were tested for Mycoplasma by PCR using a Mycloplasma testing kit (Venor™ GeM Mycoplasma Detection Kit, Sigma). Frozen stocks were generated from authenticated Mycoplasma-free cultures.
(§5) For cell proliferation assays, CHO, KB, NCI-IGROV1 and IOSE 7576 cells were plated in 96-well dishes at densities ranging from 2500-5000 cells/well in 200 μL media and treated with a range of inhibitors spanning 0-1000 nM. Experiments with RT16, D4, IGROV1, IOSE 7576 and KB cells used folate-free RPMI 1640 (FF RPMI) media with 10% dialyzed fetal bovine serum and 100 units/mL penicillin/100 μg/mL streptomycin, supplemented with 2 nM leucovorin and 2 mM L-glutamine. FR-mediated drug uptake was assessed in parallel incubations including 200 nM folic acid. For R2/PCFT4, PC43-10 and R2 CHO cells, the medium was FF-RPMI supplemented with 10% dialyzed fetal bovine serum, 100 units/mL penicillin/100 μg/mL streptomycin, 25 nM leucovorin and 2 mM L-glutamine.
(§6) Cells were treated over a 96 h period at 37° C with 5% CO2 and relative cell numbers quantified using the CellTiter-blue cell viability assay (Promega, Madison, WI) and a fluorescence plate reader. Raw data were exported to Excel for analysis and the results were plotted using Graphpad Prism 6.0. Determinations of IC50s were made […]
(§7) assays have been previously described.7, 8, 11, 12, 15-20
(§8) Using KB cells, additional proliferation assays were performed with metabolite protection in folate- and glycine-free RPMI1640 with 10% dialyzed fetal bovine serum, 2 mM L-glutamine and antibiotics with 2 nM leucovorin to identify the targeted pathway and enzyme(s). 7, 8, 11, 12, 15-20 Inhibitory effects of the novel analogs on de novo thymidylate biosynthesis and de novo purine nucleotide biosynthesis were tested by incubating drugs with thymidine (10 μM) and adenosine (60 μM), respectively. […]

[1] = system: KB tumor cells; thymidylate and de novo purine nucleotide biosynthesis; test: Metabolite protection experiments in KB cells (thymidine, adenosine, glycine, AICA); type: cell-based, human; conditions: for targeted pathway from metabolite protection (in words): thymidine 10 μM, adenosine 60 μM, glycine 130 μM, AICA 320 μM
Procedure: To identify the targeted pathways/enzymes of these pyrrolo[2,3-d]pyrimidine compounds (1, 2, 4–8), in vitro growth inhibition assays were performed with KB tumor cells in glycine-, adenosine-, and thymidine-free media without additions or in the presence of thymidine (10 μM), adenosine (60 μM), or glycine (130 μM) (both singly and in various combinations; Figure 4).[18],[23]−[25],[28]−[31],[42],[44],[45] For de novo purine biosynthesis inhibitors, protection was also tested with AICA (320 μM), which is metabolized to AICA ribonucleotide (substrate for the AICARFTase reaction, thus circumventing GARFTase).
Figure 4 Metabolite protection experiments. […] Cell densities were measured with a fluorescence assay[25] and a fluorescence plate reader. Results were normalized to cell densities in the absence of drug. Results shown are mean values plus/minus standard errors from triplicate experiments. Experimental details are described in the Supporting Information, and the methods have been previously published.[18],[23]−[25],[28]−[31],[42],[44]
(Vancouver, B.C). IGROV1, KB and IOSE 7576 cells were cultured in complete FF-RPMI with 10% fetal bovine serum and 100 units/mL penicillin/100 μg/mL streptomycin, and 2 mM L-glutamine. Cell lines were tested for Mycoplasma by PCR using a Mycloplasma testing kit (Venor™ GeM Mycoplasma Detection Kit, Sigma). Frozen stocks were generated from authenticated Mycoplasma-free cultures.
as §5, §6
assays have been previously described.7, 8, 11, 12, 15-20 […]

[2] = system: R2/PCFT4 (PCFT) CHO cells; test: Cell proliferation assay, R2/PCFT4 CHO cells expressing human PCFT; type: cell-based, Chinese hamster; conditions: for IC50: Cricetulus griseus, R2/PCFT4, 96 h, 0-1000 nM, mean (standard error), 3-5 experiments; for RFC/PCFT Selectivity ratios: ratio of IC50 PC43-10 (RFC) to IC50 R2/PCFT4 (PCFT)
Text: as §1, §2, §3, §4, §5, §6, §7, §8

| Compound | IC50 (PC43-10 (RFC) CHO cells) | targeted pathway from metabolite protection (in words) [1] | protection by glycine / mitochondrial C1 metabolism (in words) ([1]; glycine 130 μM added to adenosine and thymidine) | IC50 [2] | RFC/PCFT Selectivity ratios [2] |
| --- | --- | --- | --- | --- | --- |
| Nc1nc2[nH]cc(CCc3ccc(C(=O)N[C@@H](CCC(=O)O)C(=O)O)cc3)c2c(=O)[nH]1 [Compound 1, reference compound] | 0.0306 µM | inhibited both thymidylate and purine nucleotide biosynthesis |  |  |  |
| Nc1nc2[nH]cc(CCCc3ccc(C(=O)N[C@@H](CCC(=O)O)C(=O)O)cc3)c2c(=O)[nH]1 [Compound 2] |  | inhibited both thymidylate and purine nucleotide biosynthesis | addition of glycine provided greater protection than did adenosine and thymidine alone; also recorded: inhibition of mitochondrial C1 metabolism was also suggested |  |  |
| Nc1nc2[nH]cc(CCc3ccc(C(=O)N[C@@H](CCC(=O)O)C(=O)O)s3)c2c(=O)[nH]1 [Compound 3] | 0.0599 µM |  |  | 0.0802 µM | 0.75 |
| Nc1nc2[nH]cc(CCc3ccc(C(=O)N[C@@H](CCC(=O)O)C(=O)O)c(F)c3)c2c(=O)[nH]1 [Compound 4] | 0.169 µM | inhibited both thymidylate and purine nucleotide biosynthesis |  | 0.0259 µM | 6.5 |
| Cc1[nH]c2nc(N)[nH]c(=O)c2c1CCc1ccc(C(=O)N[C@@H](CCC(=O)O)C(=O)O)cc1 [Compound 5] | > 1 µM |  |  | 0.00766 µM | >130 |
| Cc1[nH]c2nc(N)[nH]c(=O)c2c1CCCc1ccc(C(=O)N[C@@H](CCC(=O)O)C(=O)O)cc1 [Compound 6] | > 1 µM |  |  | 0.0647 µM | >15.5 |
| Cc1[nH]c2nc(N)[nH]c(=O)c2c1CCc1ccc(C(=O)N[C@@H](CCC(=O)O)C(=O)O)s1 [Compound 7] | > 1 µM |  |  | 0.0515 µM | >19.4 |
| Cc1[nH]c2nc(N)[nH]c(=O)c2c1CCc1ccc(C(=O)N[C@@H](CCC(=O)O)C(=O)O)c(F)c1 [Compound 8] | > 1 µM |  |  | > 1 µM |  |
